In PubChem BioAssay AID248 (DTP/NCI, 2004):
Where “and” joins values, the source holds several entries; their conditions need not be identical. Identical values can stand only once. Toxic doses and inconclusive results are not listed. Cut-off read from the data, not from the text of the source: active = T/C of 150% or more; inactive = T/C below 125%.

Tested on: L1210 leukemia ip in BDF1 mice, survival T/C
Test: NCI In Vivo Anticancer Drug Screen. Data for tumor model L1210 Leukemia (intraperitoneal) in B6D2F1 (BDF1) mice
Conditions: endpoint: mean survival time, higher = longer survival
Summary of the method: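 Survival endpoint. Drug-treated group vs vehicle group, expressed as T divided by C. Tumor passaged by transplantation.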

[1] = dose: 50.0 mg/kg/injection, schedule: Q01DX009 (ip), vehicle: Klucel (hydroxypropylcellulose) (HPC)
[2] = dose: 100.0 mg/kg/injection, schedule: Q01DX001 (ip), vehicle: Klucel (hydroxypropylcellulose) (HPC)
[3] = dose: 100.0 mg/kg/injection, schedule: Q01DX009 (ip), vehicle: Klucel (hydroxypropylcellulose) (HPC)
[4] = dose: 100.0 mg/kg/injection, schedule: Q04DX003 (ip), vehicle: Klucel (hydroxypropylcellulose) (HPC)
[5] = dose: 200.0 mg/kg/injection, schedule: Q01DX001 (ip), vehicle: Klucel (hydroxypropylcellulose) (HPC)
[6] = dose: 200.0 mg/kg/injection, schedule: Q04DX003 (ip), vehicle: Klucel (hydroxypropylcellulose) (HPC)
[7] = dose: 400.0 mg/kg/injection, schedule: Q01DX001 (ip), vehicle: Klucel (hydroxypropylcellulose) (HPC)
[8] = dose: 400.0 mg/kg/injection, schedule: Q04DX003 (ip), vehicle: Klucel (hydroxypropylcellulose) (HPC)
[9] = dose: 100.0 mg/kg/injection, schedule: Q01DX009 (ip), vehicle: saline with Tween-80
[10] = dose: 100.0 mg/kg/injection, schedule: Q04DX003 (ip), vehicle: saline with Tween-80
[11] = dose: 200.0 mg/kg/injection, schedule: Q04DX003 (ip), vehicle: saline with Tween-80
[12] = dose: 400.0 mg/kg/injection, schedule: Q04DX003 (ip), vehicle: saline with Tween-80
[13] = dose: 100.0 mg/kg/injection, schedule: Q01DX001 (ip), vehicle: saline
[14] = dose: 200.0 mg/kg/injection, schedule: Q01DX001 (ip), vehicle: saline
[15] = dose: 400.0 mg/kg/injection, schedule: Q01DX001 (ip), vehicle: saline
[16] = dose: 100.0 mg/kg/injection, schedule: Q04DX002 (ip), vehicle: saline
[17] = dose: 200.0 mg/kg/injection, schedule: Q04DX002 (ip), vehicle: saline
[18] = dose: 200.0 mg/kg/injection, schedule: Q01DX009 (ip), vehicle: Klucel (hydroxypropylcellulose) (HPC)
[19] = dose: 12.5 mg/kg/injection, schedule: Q04DX003 (ip), vehicle: saline with Tween-80
[20] = dose: 25.0 mg/kg/injection, schedule: Q01DX009 (ip), vehicle: saline with Tween-80
[21] = dose: 25.0 mg/kg/injection, schedule: Q04DX003 (ip), vehicle: saline with Tween-80
[22] = dose: 50.0 mg/kg/injection, schedule: Q04DX003 (ip), vehicle: saline with Tween-80

Measured: T/C

CC(C)C1(C)C(=O)N(C)C(=O)N1Br (centres undefined)
inactive: [1] 102 % of control | dose: 50.0 mg/kg/injection, schedule: Q04DX003 (ip), vehicle: Klucel (hydroxypropylcellulose) (HPC) 100 % of control | [2] 107 % of control | [3] 96 % of control | [4] 97 % of control | [5] 98 % of control | [6] 105 % of control | [7] 98 % of control

CCCC(C(=O)c1ccc(OC)cc1)C(O)(C(F)(F)F)C(F)(F)F (centres undefined)
inactive: [4] 91 % of control | [6] 98 % of control | [8] 100 % of control

CCc1ccc(C(=O)C2CC2)cc1
inactive: [9] 102 % of control | [10] 93 % of control | dose: 200.0 mg/kg/injection, schedule: Q01DX009 (ip), vehicle: saline with Tween-80 104 % of control | [11] 96 % of control | dose: 400.0 mg/kg/injection, schedule: Q01DX009 (ip), vehicle: saline with Tween-80 110 % of control | [12] 96 % of control

O=C(O)C1OC(n2cc(F)c(=O)[nH]c2=O)CC1O (centres undefined)
inactive: dose: 50.0 mg/kg/injection, schedule: Q01DX001 (ip), vehicle: saline 101 % of control | [13] 101 % of control | [14] 98 % of control | [15] 110 % of control

CC1CCN(C(=O)CC#N)CC1
inactive: dose: 50.0 mg/kg/injection, schedule: Q01DX009 (ip), vehicle: saline 108 % of control | dose: 100.0 mg/kg/injection, schedule: Q01DX009 (ip), vehicle: saline 112 % of control | [16] 102 % of control | [17] 102 % of control

CC1=CC(=O)C=CC1(C)C
inactive: [2] 100 % of control | [3] 94 % of control | [5] 100 % of control | [18] 94 % of control | [7] 108 % of control

CSc1cc(-c2ccccc2)c2ccccc2[n+]1C
inactive: [19] 112 % of control | [20] 116 % of control | [21] 112 % of control | [22] 90 % of control | [10] 94 % of control

CC(C)(C)c1ccc(SSc2ccc(C(C)(C)C)cc2)cc1
inactive: [1] 94 % of control | [3] 94 % of control | [4] 94 % of control | [18] 98 % of control | [6] 91 % of control | dose: 400.0 mg/kg/injection, schedule: Q01DX009 (ip), vehicle: Klucel (hydroxypropylcellulose) (HPC) 96 % of control | [8] 92 % of control

O=[N+]([O-])c1ccc(Cc2ccccn2)cc1
inactive: [2] 104 % of control | [3] 95 % of control | [5] 108 % of control | [18] 101 % of control | [7] 112 % of control

CCS(=O)(=O)C(Br)CBr (centres undefined)
inactive: dose: 25.0 mg/kg/injection, schedule: Q01DX009 (ip), vehicle: Klucel (hydroxypropylcellulose) (HPC) 100 % of control | [1] 114 % of control | [3] 105 % of control | dose: 100.0 mg/kg/injection, schedule: Q04DX002 (ip), vehicle: Klucel (hydroxypropylcellulose) (HPC) 103 % of control | dose: 200.0 mg/kg/injection, schedule: Q04DX002 (ip), vehicle: Klucel (hydroxypropylcellulose) (HPC) 95 % of control

c1ccc2nc(N3CCCCC3)c(N3CCCCC3)nc2c1
inactive: dose: 222.0 mg/kg/injection, schedule: Q01DX Z (ip), vehicle: methylcellulose (MC) 108 % of control | dose: 333.0 mg/kg/injection, schedule: Q01DX Z (ip), vehicle: methylcellulose (MC) 96 % of control | dose: 500.0 mg/kg/injection, schedule: Q01DX Z (ip), vehicle: methylcellulose (MC) 92 % of control

CC(=O)N(C)c1cc(N)ccc1OCc1ccccc1
inactive: [19] 91 % of control | [20] 100 % of control | [21] 98 % of control and 101 % of control | dose: 50.0 mg/kg/injection, schedule: Q01DX009 (ip), vehicle: saline with Tween-80 96 % of control | [22] 95 % of control and 102 % of control | [9] 102 % of control | [10] 95 % of control and 113 % of control | [11] 97 % of control

CCCCC/C(=N/NC(N)=O)C(OC)OC
inactive: dose: 100.0 mg/kg/injection, schedule: Q01DX001 (ip), vehicle: other 92 % of control | dose: 200.0 mg/kg/injection, schedule: Q01DX001 (ip), vehicle: other 92 % of control | dose: 400.0 mg/kg/injection, schedule: Q01DX001 (ip), vehicle: other 97 % of control

NNC(=O)C(N)Cc1ccccc1 (centres undefined)
inactive: [13] 101 % of control | [14] 105 % of control

COc1ccc(C)cc1NC(=O)c1c(Br)c(Br)c(Br)c(Br)c1C(=O)O
inactive: [3] 98 % of control | [18] 92 % of control

CCOC(=O)C(CCC1=NC(C)(C)CC(C)O1)C(=O)OCC (centres undefined)
inactive: [10] 94 % of control | [11] 101 % of control | [12] 94 % of control

C=CCOC(=O)C(F)(F)F
inactive: [16] 89 % of control | [17] 86 % of control

O=C(CN1C(=O)C2CCCCC2C1=O)N1CC1 (centres undefined)
inactive: dose: 100.0 mg/kg/injection, schedule: Q01DX001 (ip), vehicle: carboxymethylcellulose (CMC) 110 % of control | dose: 200.0 mg/kg/injection, schedule: Q01DX001 (ip), vehicle: carboxymethylcellulose (CMC) 103 % of control

CC(=O)Nc1ccc(SC(=O)c2ccc(C(Cl)(Cl)Cl)cc2)cc1
inactive: [10] 101 % of control | [11] 98 % of control | [12] 93 % of control

O=C(N/N=C/c1ccc2c(c1)CCC2)c1ccc(S(=O)(=O)O)cc1
inactive: [4] 97 % of control | [6] 104 % of control | [8] 97 % of control

CN(C)c1ccc(-c2cc(NS(=O)(=O)c3ccccc3)ccc2NS(=O)(=O)c2ccccc2)cc1
inactive: [2] 96 % of control | [5] 94 % of control | [7] 96 % of control

COc1ccc(CCN(CCO)CCNS(=O)(=O)c2ccc(C)cc2)cc1
inactive: dose: 100.0 mg/kg/injection, schedule: Q01DX001 (ip), vehicle: water 98 % of control | dose: 200.0 mg/kg/injection, schedule: Q01DX001 (ip), vehicle: water 107 % of control | dose: 400.0 mg/kg/injection, schedule: Q01DX001 (ip), vehicle: water 107 % of control

O=C1C(NCc2c(O)ccc3ccccc23)CON1C(c1ccccc1)(c1ccccc1)c1ccccc1 (centres undefined)
inactive: dose: 75.0 mg/kg/injection, schedule: Q04DX003 (ip), vehicle: saline 89 % of control | dose: 300.0 mg/kg/injection, schedule: Q04DX003 (ip), vehicle: saline 91 % of control

SCc1ccccn1
inactive: dose: 30.0 mg/kg/injection, schedule: Q01DX015 (ip), vehicle: saline 103 % of control | dose: 60.0 mg/kg/injection, schedule: Q01DX015 (ip), vehicle: saline 94 % of control | [13] 107 % of control | dose: 120.0 mg/kg/injection, schedule: Q01DX015 (ip), vehicle: saline 120 % of control | [14] 107 % of control | dose: 240.0 mg/kg/injection, schedule: Q01DX015 (ip), vehicle: saline 111 % of control | [15] 107 % of control | dose: 400.0 mg/kg/injection, schedule: Q01DX015 (ip), vehicle: saline 90 % of control
